Molecules are shown by their SMILES. The source made the active and inactive calls. Cut-off read from the data, not from the text of the source: actives have a measured IC50 and inactives only a lower limit.

In the assay the target is Envelope glycoprotein gp160 (Human immunodeficiency virus 1, UniProt Q6QLK5). Nature of the assay: cell-free HIV fusion peptide-binding blockers – biochemical, uHTS, fluorescence dequenching, […] (AID 1986).
Sequence of Envelope glycoprotein gp160 (Q6QLK5 whole entry, the tested form may be a part): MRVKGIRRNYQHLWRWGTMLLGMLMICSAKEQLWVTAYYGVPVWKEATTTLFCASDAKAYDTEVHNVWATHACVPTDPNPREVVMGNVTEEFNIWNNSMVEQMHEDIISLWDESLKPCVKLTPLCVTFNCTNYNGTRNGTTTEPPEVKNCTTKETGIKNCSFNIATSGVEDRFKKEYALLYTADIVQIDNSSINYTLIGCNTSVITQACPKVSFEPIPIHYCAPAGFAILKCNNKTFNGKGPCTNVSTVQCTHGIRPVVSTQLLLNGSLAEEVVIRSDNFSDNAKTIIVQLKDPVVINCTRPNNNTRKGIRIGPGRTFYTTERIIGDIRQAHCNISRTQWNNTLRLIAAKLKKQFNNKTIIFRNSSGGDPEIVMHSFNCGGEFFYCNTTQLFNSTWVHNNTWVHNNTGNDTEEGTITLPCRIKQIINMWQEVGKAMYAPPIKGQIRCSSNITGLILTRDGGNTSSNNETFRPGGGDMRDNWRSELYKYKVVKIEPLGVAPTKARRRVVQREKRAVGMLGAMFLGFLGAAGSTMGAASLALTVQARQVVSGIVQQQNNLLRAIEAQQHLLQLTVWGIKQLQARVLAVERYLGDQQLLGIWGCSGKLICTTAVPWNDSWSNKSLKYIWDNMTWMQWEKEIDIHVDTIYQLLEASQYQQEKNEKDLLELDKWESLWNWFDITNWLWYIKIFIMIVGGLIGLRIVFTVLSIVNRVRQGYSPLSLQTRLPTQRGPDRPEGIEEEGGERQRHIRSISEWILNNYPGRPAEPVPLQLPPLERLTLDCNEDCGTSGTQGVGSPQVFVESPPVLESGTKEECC
As a reminder, the IC50 is the concentration at which inhibition is half-maximal. In the case of `CC(C)NC(=O)c1sc(=S)n2c1[nH]c(=O)c1ccc(C(=O)NCCc3ccc(Cl)cc3)cc12`, the IC50 was 95.7 µM (active).
In the case of `O=C(O)COc1ccc(Br)cc1C(c1c(C(=O)O)[nH]c2ccccc12)c1c(C(=O)O)[nH]c2ccccc12`, the IC50 is 5.76 µM (active).
Regarding `CC1=NN(c2ccc(C(=O)O)cc2)C(=O)/C1=C\c1ccc(OC(=O)c2cccs2)cc1`, the IC50 was 12.6 µM (active).
Take `COc1ccc(/N=C2\S/C(=C\c3ccc(OCC(=O)O)cc3)C(=O)N2CCc2c[nH]c3ccccc23)cc1`: the IC50 is 12.6 µM (active).

Values taken from ChEMBL document CHEMBL1201862, “PubChem BioAssay data set” (2004).
